Key:
RPE1 cells = assay: Mitochondrial membrane potential and ATP levels in RPE1 cells lacking DIESL cultured without lipoproteins; type: cell-based
Protocol: For BODIPY 493/503 measurements in fixed HAP1 cells, HAP1 cells, grown in 10 cm plates, were collected by trypsinization and were fixed in Fix Buffer I (BD Biosciences) for 10 minutes at 37° C. Cells were pelleted, washed with FACS buffer (10% FBS in PBS), resuspended in FACS buffer and counted. 10 million cells were stained with 1 μg/ml BODIPY 493/503 and 5 μg/ml DAPI (Invitrogen), diluted in FACS buffer, for one hour at room temperature. Cells were washed once in FACS buffer, then passed through a 35 μm nylon mesh cell strainer into a FACS tube. Fluorescence was analyzed on an LSR Fortessa (BD Biosciences) analytical flow cytometer, using 405 and 488 nm lasers to detect DAPI and BODIPY 493/503, respectively. Data were analyzed using FlowJo (BD Life Sciences). Fluorescence plots represent the fluorescent signal measured in single haploid G1 cells, as determined by DAPI fluorescence intensity. […] Fluorescence (using a 561 nm laser) and data were analyzed as above. Fluorescence plots represent the fluorescent signal measured in single cells. Membrane potential was calculated by subtracting the fluorescence mean of depolarized (CCCP-treated) cells. RPE1 cells were plated in 96-well plates and ATP levels were measured using CellTitre-Glo (Promega) according to the manufacturer's instructions. […]

[1] = biological target: T1, 3xHA-tagged DIESL (human TMEM68, DGAT1/2-Independent Enzyme Synthesizing Storage Lipids) (human, UniProt Q96MH6 1-324, N-glycosylation at its N-terminus (N-X-S/T motif; N5Q mutant served as negative control)); assay: summary of the examples (crosslinking and co-immunoprecipitation)
T1 construct: It is an ER membrane protein and was assayed in cells or cell lysates; also called 3xHA-DIESL; transmembrane protein 68; not shown: the N-terminal position is inferred only from the name 3xH
T1 sequence: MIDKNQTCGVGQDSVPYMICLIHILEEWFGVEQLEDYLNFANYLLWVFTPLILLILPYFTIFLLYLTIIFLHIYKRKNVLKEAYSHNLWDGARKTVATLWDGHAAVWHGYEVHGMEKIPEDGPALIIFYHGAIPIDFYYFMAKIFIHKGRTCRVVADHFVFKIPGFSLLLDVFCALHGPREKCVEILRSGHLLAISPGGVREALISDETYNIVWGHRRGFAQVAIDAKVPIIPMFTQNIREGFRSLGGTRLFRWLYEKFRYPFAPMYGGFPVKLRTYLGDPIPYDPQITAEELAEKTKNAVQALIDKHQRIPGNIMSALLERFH
Protocol: HAP1 ΔDIESL and ATMX1ΔDIESL cells reconstituted with 3xHA-DIESL, or HeLa WT cells expressing 3xHA-DIESL, were washed with PBS and incubated in 1% paraformaldehyde for 20 minutes at room temperature. Cross-linking reactions were quenched by incubation in 0.2 M glycine for 10 minutes. Cells were then lysed in RIPA buffer on ice as described above, sonicated and protein concentrations were determined. Samples were separated by SDS-PAGE and immunoblotted as described above.
HAP1 ΔDIESL cells reconstituted with 3xHA-DIESL, grown to confluence in a 6-well plate, were lysed in 400 μl IP buffer (25 mM HEPES PH 7.0, 150 mM NaCl, 1% detergent [Tween-20 unless otherwise indicated], and protease/phosphatase inhibitor cocktails) on ice, sonicated and cleared by centrifugation. 250 μl of lysate was incubated with 10 μl of PBS-washed anti-HA magnetic beads (Pierce) overnight while rotating at 4° C. The following day, beads were washed three times in IP buffer before elution in SDS-PAGE sample buffer at 90° C. for 20 minutes. One-quarter of this eluate (along with the corresponding amount of input sample) were separated by SDS-PAGE and subjected to immunoblot analysis as above.

With `CCOC(=O)[C@@]1(CCCCCCOc2ccc(Cl)cc2)CO1` [etomoxir] the “Effect of CPT1A inhibition on the oleic acid rescue” value (RPE1 cells; DIESL-deficient RPE1 cells without lipoproteins plus oleic acid, data not shown) was “sensitive”.

`CCCCCCCC/C=C\CCCCCCCC(=O)O` [oleic acid] was tested, and the “Rescue of decreased mitochondrial membrane potential and ATP levels” value (RPE1 cells; DIESL-deficient RPE1 cells, lipoprotein-deficient medium supplemented with 50 µM oleic acid for 24 hours, FIG. 19F) was “rescued”.

B1: Thioredoxin related transmembrane protein 1 (TMX1), human, endogenous in HAP1 / HeLa cells (enzyme)
chain: RRSNVRVITDENWRELLEGDWMIEFYAPWCPACQNLQPEWESFAEWGEDLEVNIAKVDVTEQPGLSGRFIITALPTIYHCKDGEFRRYQGPRTKKDFINFISDKEWKSIEPVSSWFGPGSVLMSSMSALFQLSMWIRTCHNYFIEDLGLPVWGSYTVFALATLFSGLLLGLCMIFVADCLCPSKRRRPQPYPYPSKKLLSESAQPLKKVEEEQEADEEDVSEEEAESKEGTNKDFPQNAIRQRSLGPSLATDKS
notes: Endogenous TMX1 of human cell lines (HAP1, HeLa), an ER membrane protein, detected with anti-TMX1 antibodies; also called transmembrane thioredoxin 1; TMX1 polypeptide
B1: binds [1].
